# Experimental data taken from paper PMC11249646, “Small-Molecule Disruptors of the Interaction between Calcium- and Integrin-Binding Protein 1 and Integrin αIIbβ3 as Novel Antiplatelet Agents” (ACS Pharmacology & Translational Science, 2024).
# pIC50: −log10 of the molar value. Where two headings read alike, the source gives them in different places.
# Molecular target: T1, CIB1 and αIIb interaction (CIB1-GST : F-αIIb peptide) (Homo sapiens, UniProt Q99828)
# T1 construct: made in house; host or cells: BL-21 plus RIL cells (E. coli)
# T1 sequence (Q99828 1-191): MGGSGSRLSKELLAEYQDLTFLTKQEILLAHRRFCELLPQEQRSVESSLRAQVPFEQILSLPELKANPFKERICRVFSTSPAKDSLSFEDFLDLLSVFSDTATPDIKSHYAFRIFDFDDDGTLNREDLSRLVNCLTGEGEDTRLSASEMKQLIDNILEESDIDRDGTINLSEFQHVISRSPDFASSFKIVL
# Assay: FP assay, 1536-well qHTS format (primary and confirmatory screen)
# Assay type: binding
# Conditions: for Efficacy (%): negative = inhibition; for Curve Class: negative sign = inhibitory curve; for pIC50: read-out: IC50
# [1] = qHTS primary screen hits, Table S2
# [2] = qHTS primary screen hits, Table S2, several classes where COUNT > 1
# [3] = qHTS primary screen of LOPAC/NPACT libraries
SMILES,Efficacy (%) [1],Curve Class [2],pIC50 [1],Curve Class [1],Efficacy (%) [3],Curve Class [3],pIC50 [3]
O=C(Nc1ccc(S(=O)(=O)N2CCOCC2)cc1)c1ccc(CN2CCCc3ccccc32)cc1.O=C(O)C(F)(F)F [NCGC00348355-01],-15%,-2.4,4.30,,,,
CCC(C)(C)n1nnnc1C(c1cc2ccc(OC)cc2[nH]c1=O)N1CCc2ccccc2C1.O=C(O)C(F)(F)F (stereo not drawn) [NCGC00350929-01],-29%,-2.4,4.25,,,,
CC1=C(C(=O)Nc2ccc(C(=O)O)cc2)C(c2ccccc2Cl)N=C(Nc2nc3ccccc3o2)N1.O=C(O)C(F)(F)F (stereo not drawn) [NCGC00351025-01],-29%,-2.4,4.30,,,,
O=C(O)C(F)(F)F.O=C(c1ccc2ccccc2c1)c1no[n+]([O-])c1C(=O)c1ccc2ccccc2c1 [NCGC00351316-01],-35%,,4.35,-2.2,,,
C#CCOC(=O)NCCCC[C@H](N)C(=O)O [NCGC00351539-01],-24%,-2.4,4.25,,,,
Cc1ccccc1C(=O)N1CCc2cc(-c3nc(NC(=O)Cc4cccc(OCCOCCOCCN)c4)sc3C)ccc21.O=C(O)C(F)(F)F [NCGC00351617-01],-37%,-2.4,4.30,,,,
CCCCn1nc(-c2ccccc2)c2nc3ccccc3nc21.O=C(O)C(F)(F)F [NCGC00351644-02],-127%,-1.1,4.60,,,,
O=C(O)C(F)(F)F.O=C(O)c1csc(-n2nc(-c3ccc(F)c(Cc4ccccc4)c3)cc2O)n1 [NCGC00356005-01],-47%,-2.2,4.10,,,,
CCOC(=O)OC(C)OC(=O)c1csc(-n2nc(-c3ccc(F)c(F)c3)cc2O)n1.O=C(O)C(F)(F)F (stereo not drawn) [NCGC00356024-01],-35%,-2.4,4.10,,,,
O=C(O)C(F)(F)F.OC(CN1CCCCC1)Cn1c2ccc(Cl)cc2c2cc(Cl)ccc21 (stereo not drawn) [NCGC00356030-01],-35%,,4.10,-3,,,
Cn1ccc(=Nc2ccc(NC(=O)c3ccc(/N=c4/ccn(C)c5ccc([N+](=O)[O-])cc45)cc3)cc2)cc1.O=C(O)C(F)(F)F [NCGC00356208-01],-35%,-2.4,4.25,,,,
Cl.O=C(O)c1csc(-n2nc(-c3ccc(F)c(F)c3)c(Cc3ccccc3)c2O)n1 [NCGC00356264-02],-25%,-2.4,4.10,,,,
Cl.NS(=O)(=O)c1cccc(Cc2c(-c3ccc(F)c(F)c3)nn(-c3nc(C(=O)O)cs3)c2O)c1 [NCGC00356269-01],-17%,-2.4,4.30,,,,
CC(C)(C)OC(=O)c1csc(-n2nc(-c3ccc(F)c(F)c3)c(-c3ccccc3)c2O)n1.O=C(O)C(F)(F)F [NCGC00356364-01],-24%,,4.25,-2.4,,,
CCOC(=O)c1csc(-n2nc(-c3ccc(F)c(F)c3)cc2O)n1 [NCGC00356457-01],-29%,,4.25,-2.4,,,
Nc1ccc2nc3c(=O)n(CCc4ccccc4)c(=O)[nH]c3nc2c1.O=C(O)C(F)(F)F [NCGC00356558-01],-62%,-1.2,5.30,,,,
CNS(=O)(=O)c1ccc(Cc2c(-c3cccc(-c4ccccc4)c3)nn(-c3nc(C(=O)O)cs3)c2O)cc1.O=C(O)C(F)(F)F [NCGC00356637-01],-55%,-3,4.10,,,,
NS(=O)(=O)c1ccc(Cc2cn(-c3nc(C(=O)O)cs3)c3ncccc23)cc1 [NCGC00356703-01],-41%,-2.2,4.35,,,,
N#CCc1cc(-c2ccc(F)c(F)c2)nn1-c1nc(C(=O)O)cs1.O=C(O)C(F)(F)F [NCGC00356771-02],-16%,,4.30,-2.4,,,
NS(=O)(=O)c1ccc(NCc2cn(-c3nc(C(=O)O)cs3)nc2-c2ccccc2)cc1.O=C(O)C(F)(F)F [NCGC00357525-01],-25%,-2.4,4.25,,,,

SMILES,Efficacy (%) [1],Curve Class [2],pIC50 [1],Curve Class [1],Efficacy (%) [3],Curve Class [3],pIC50 [3]
COc1ccc(S(=O)(=O)Nc2nc(-c3cccc([N+](=O)[O-])c3)cs2)cc1OC [NCGC00370730-07],,,,,-22%,-1.4,4.65
CC1=C(C(=O)OC2CCCCC2)C(c2ccc([N+](=O)[O-])cc2)C2=C(CC(C)(C)CC2=O)N1 (stereo not drawn) [NCGC00370923-11],,,,,-104%,-2.1,4.75
O=C(O)CCc1ccc(NCc2cccc3c2CCCN3CCOc2ccccc2)cc1F [NCGC00370998-03],,,,,-32%,-2.4,4.35
N#CSc1cc(SC#N)c(N)nc1N [NCGC00371134-01],,,,,-31%,-2.4,4.85
Nc1c(C(=O)Nc2ccc(F)cc2)sc2nc(-c3cccs3)ccc12.O=C(O)C(F)(F)F [NCGC00371815-01],-31%,-2.4,4.10,,,,
COc1cccc2nc3c(C(=O)NCCN(C)C)cccc3cc12.O=C(O)C(F)(F)F [NCGC00371843-01],-37%,-2.4,4.30,,,,
O=C(O)c1csc(-n2cc(Cc3ccc(CO)cc3)c(-c3cccc(-c4ccccc4)c3)n2)n1 [NCGC00371885-01],-35%,-2.4,4.35,,,,
Cn1cc(-c2cnc3ccc4ccc(CS(=O)(=O)NCc5ccccn5)cc4c(=O)c3c2)cn1 [NCGC00378567-02],,,,,-17%,-1.4,5.00
CCOc1cc(C(C)(C)C)ccc1C1=N[C@@](C)(c2ccc(Cl)cc2)[C@@](C)(c2ccc(Cl)cc2)N1C(=O)N1CCN(CC(=O)N2CCOCC2)CC1 [NCGC00378588-02],-29%,-2.4,4.31,,,,
CNC(=O)c1ccccc1Nc1cc(Nc2ccc(N3CCOCC3)cc2OC)ncc1C(F)(F)F [NCGC00378620-04],,,,,-24%,-1.4,5.20
Cc1cc(-c2cc(O)ccc2Cl)cc2nnc(Nc3ccc(OCCN4CCCC4)cc3)nc12.Cl [NCGC00378690-01],,,,,-25%,-2.4,4.25
Cc1cccc(C)c1-n1c(=O)c2cnc(Nc3ccc(N4CCN(C)CC4)cc3)nc2n2c3ccccc3nc12 [NCGC00378811-02],,,,,-28%,-2.4,4.25
CO[C@@H](Cc1ccc(OCCc2nc(-c3ccccc3)oc2C)c2ccsc12)C(=O)O [NCGC00378922-01],,,,,-15%,-1.4,4.70
CCOc1cc(C(=O)N2CCC(N3CCN(C)CC3)CC2)ccc1Nc1ncc2c(n1)N(C1CCCC1)c1ccccc1C(=O)N2C [NCGC00378965-03],,,,,-25%,-2.4,4.25
CCCC1(CCC)CCC2(CCN(CCCN(CC)CC)C2)CC1.Cl [NCGC00379163-01],,,,,-32%,-2.4,4.10
Cc1cc(O)cc(Oc2cc(C)c(C(=O)O)c(O)c2)c1 [NCGC00380115-01],,,,,-28%,-2.4,4.25
C=C1CCC2C(C)(C)CC(O)CC2(C)C1CCC(C)CCOC(=O)CCC(=O)O (stereo not drawn) [NCGC00380160-01],,,,,-24%,-2.4,4.40
C=C1C(=O)O[C@@H]2C/C(C)=C\C(=O)/C=C(\C)[C@@H](OC(=O)/C(C)=C\C)[C@H](O)[C@@H]12 [NCGC00380290-01],,,,,-23%,-1.4,5.35
CC1(CO)CCCC2(C)C1C(OC(=O)c1ccccc1)C=C1C(=O)OCC12O (stereo not drawn) [NCGC00380390-01],,,,,-28%,-2.4,4.35
